This is an account of results in PubChem BioAssay (NCI).

SMILES strings stand for the structures. Values joined by “and” are separate entries in the source; they are usually repeats but may differ in a detail not shown here. Equal values may be shown once.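 Cells were grown in 96-well plates and exposed to each compound for 48 hours at five concentrations; endpoints were interpolated linearly between bracketing concentrations, or set to the highest concentration if not reached. The concentration for 50% growth inhibition is given as GI50. TGI is the concentration that stops growth completely.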

Some test systems named below: HOP-92 NSCLC; HS 578T breast; K-562 leukemia; MALME-3M melanoma; MDA-MB-435; NCI-H23 lung; SK-MEL-5 melanoma; SNB-75 CNS; A498 renal; A549 NSCLC.
Test in all cases: NCI-60 cell line screen, 48 h

`CCc1ccc2c(c1)C(=O)c1c-2n(CCCN)c(=O)c2cc(OC)c(OC)cc12`: the GI50 with HOP-92 NSCLC was 1.33 µM; with HS 578T breast, 2.07 µM; in the experiment on K-562 leukemia, 0.306 µM; in the experiment with MALME-3M melanoma it was 0.5 µM; in the experiment on MDA-MB-435, 1.97 µM; with NCI-H23 lung it was 1.81 µM. For the same compound, the GI50 was 1.44 µM in the experiment on SK-MEL-5 melanoma and 1.96 µM in the experiment on SNB-75 CNS. The TGI in the experiment with HOP-92 NSCLC was 2.71 µM; in the experiment with HS 578T breast it was 3.78 µM; in the experiment on K-562 leukemia it was 0.907 µM; in the experiment with MALME-3M melanoma it was 2.1 µM; in the experiment on MDA-MB-435, 3.55 µM; with NCI-H23 lung, 3.3 µM. Moreover, the results for the TGI with SK-MEL-5 melanoma and in the experiment with SNB-75 CNS were 2.8 µM and 4.3 µM, respectively.
As to `O=c1[nH]c2cc(Cl)ccc2nc1/C(=N\Nc1ccccc1)C(O)c1ccc2c(c1)OCO2` (stereo not drawn), the TGI in the experiment with A498 renal, with A549 NSCLC, in the experiment with HOP-92 NSCLC, in the experiment on HS 578T breast, in the experiment on K-562 leukemia and in the experiment with MALME-3M melanoma was over 100 µM in each case. In addition, the TGI with MDA-MB-435, in the experiment with NCI-H23 lung, with SK-MEL-5 melanoma and in the experiment on SNB-75 CNS was over 100 µM each time.
Consider `CN1C2C=CC(=O)C1C1C(=O)N(c3ccccc3)C(=O)C12` (stereo not drawn), for which the GI50 in the experiment on A498 renal was 15.6 µM; in the experiment with A549 NSCLC it was 11.1 µM; in the experiment with HOP-92 NSCLC, 0.085 µM; in the experiment with HS 578T breast, 4.55 µM; in the experiment with K-562 leukemia, 10.2 µM; in the experiment on MDA-MB-435 it was 3.44 µM. For the same compound, the GI50 in the experiment on NCI-H23 lung was 13.2 µM; in the experiment on SK-MEL-5 melanoma, 11.8 µM; in the experiment with SNB-75 CNS it was 13 µM. Also, the TGI is 29.5 µM in the experiment on A498 renal; 29.1 µM in the experiment on A549 NSCLC; 0.701 µM in the experiment with HOP-92 NSCLC; 22.3 µM in the experiment with HS 578T breast; over 100 µM in the experiment with K-562 leukemia; 22.8 µM in the experiment on MDA-MB-435. The TGI in the experiment with NCI-H23 lung was found to be 37.1 µM; in the experiment on SK-MEL-5 melanoma it was 24.3 µM; in the experiment with SNB-75 CNS, 29.2 µM.
Turning to `CCCN1C(=O)/C(=C/c2ccc(SC(F)(F)F)cc2)SC1=Nc1ccc(OC)cc1`, the GI50 is 11 µM with A498 renal; 8.87 µM with A549 NSCLC; 6.6 µM in the experiment on HOP-92 NSCLC; 14 µM with HS 578T breast; 23.1 µM in the experiment on K-562 leukemia; 20 µM in the experiment on MDA-MB-435. The figures for the GI50 in the experiment with NCI-H23 lung and with SK-MEL-5 melanoma were 12.6 µM and 17.3 µM, respectively. Besides, the TGI in the experiment on A498 renal is 21.9 µM; with A549 NSCLC, 30.1 µM; in the experiment with HOP-92 NSCLC it was 19.8 µM; with HS 578T breast it was 33.4 µM; in the experiment with K-562 leukemia, over 50 µM; in the experiment on MDA-MB-435, over 50 µM. Besides, the figures for the TGI in the experiment with NCI-H23 lung and with SK-MEL-5 melanoma were 30.2 µM and over 50 µM, respectively.
With `OCCCN=C1CCCCC1`, the TGI in the experiment with A498 renal, in the experiment on A549 NSCLC, in the experiment with HOP-92 NSCLC, with HS 578T breast, with K-562 leukemia and with MALME-3M melanoma was over 100 µM throughout. The TGI in the experiment on MDA-MB-435, with NCI-H23 lung and in the experiment on SK-MEL-5 melanoma was over 100 µM each time.
As to `Fc1ccccc1CN1COc2c(cc(Cl)c3cccnc23)C1`, the TGI stood at 10.9 µM in the experiment on A549 NSCLC; 16.8 µM with HOP-92 NSCLC; 20.8 µM in the experiment with HS 578T breast; 8.41 µM with K-562 leukemia; 12.2 µM with MALME-3M melanoma; 8.27 µM with MDA-MB-435. Also, the TGI with NCI-H23 lung worked out at 9.31 µM; in the experiment with SK-MEL-5 melanoma, 3.75 µM; with SNB-75 CNS it was 14.7 µM.
Turning to `CC(C)(O)C1COC2=C1C(=O)c1ccccc1C2=O` (stereo not drawn), the TGI with A498 renal was over 100 µM; in the experiment on A549 NSCLC it was over 100 µM; in the experiment on HOP-92 NSCLC it was over 100 µM; in the experiment with HS 578T breast, over 100 µM; in the experiment on K-562 leukemia it was over 100 µM; in the experiment with MDA-MB-435, 44.6 µM. Also, the figures for the TGI with NCI-H23 lung, in the experiment on SK-MEL-5 melanoma and in the experiment with SNB-75 CNS were 38.8 µM, 57.4 µM and 82 µM, respectively.
`O=c1ccc(N=Nc2ccccc2)ccc1O`: the TGI is 27.8 µM in the experiment on A549 NSCLC; 41.1 µM with HOP-92 NSCLC; 35.3 µM in the experiment on HS 578T breast; over 100 µM with K-562 leukemia; 27.9 µM with MALME-3M melanoma; 30.7 µM in the experiment on MDA-MB-435. Moreover, the TGI amounted to 31.5 µM with NCI-H23 lung, 23.6 µM with SK-MEL-5 melanoma and 57.8 µM in the experiment on SNB-75 CNS.
Regarding `O=[N+]([O-])c1cccc(/C=N/Nc2ccc3ccccc3n2)c1O`, the TGI in the experiment with A498 renal is over 66.9 µM; in the experiment with A549 NSCLC, over 70.8 µM; in the experiment with HOP-92 NSCLC it was over 46.9 µM; with HS 578T breast, over 88.6 µM; with K-562 leukemia it was over 100 µM; in the experiment with MALME-3M melanoma, 11.3 µM. The TGI with MDA-MB-435 was found to be 20.1 µM; in the experiment on NCI-H23 lung, 12.1 µM; in the experiment on SK-MEL-5 melanoma, 3.45 µM.
For `CCCCCCCCCCCCCCCCCc1nc(Cl)nc(Cl)c1Cl`, the TGI in the experiment on A549 NSCLC, with HOP-92 NSCLC, in the experiment on HS 578T breast, in the experiment with K-562 leukemia, in the experiment on MALME-3M melanoma and with MDA-MB-435 was over 100 µM each time. In addition, the TGI with NCI-H23 lung was over 100 µM; with SK-MEL-5 melanoma, 50.7 µM; with SNB-75 CNS, over 100 µM.
On to `COC(=O)c1c(C)nc(C)c2c1C(=O)C(Br)=C(NCc1ccccc1)C2=O`, for which the GI50 is 4.48 µM in the experiment on A498 renal; 2.56 µM with A549 NSCLC; 2.46 µM with HOP-92 NSCLC; 10.8 µM with HS 578T breast; 3.36 µM in the experiment with K-562 leukemia; 1.47 µM in the experiment on MALME-3M melanoma. In addition, the GI50 was 1.86 µM in the experiment on MDA-MB-435, 1.89 µM with NCI-H23 lung and 1.47 µM in the experiment with SK-MEL-5 melanoma. Besides, the TGI in the experiment with A498 renal was 17.3 µM; in the experiment with A549 NSCLC it was 6.64 µM; with HOP-92 NSCLC it was 5.78 µM; with HS 578T breast it was over 100 µM; in the experiment with K-562 leukemia, over 100 µM; in the experiment on MALME-3M melanoma it was 2.85 µM. Also, the values for the TGI in the experiment with MDA-MB-435, in the experiment on NCI-H23 lung and in the experiment with SK-MEL-5 melanoma were 3.38 µM, 5.19 µM and 2.85 µM, respectively.
For the compound `C/C=C/C=C/c1cc2cc3c(c(O)c2c(=O)[nH]1)C1(CC3)C(O)=c2c(=O)c3c(=O)cc(OC)c(=O)c=3c(=O)c2=C1O` (stereo not drawn), the GI50 in the experiment with A549 NSCLC was 0.183 µM and 1.4 µM; with HOP-92 NSCLC it was 0.415 µM; with SNB-75 CNS, 0.0567 µM and 0.545 µM. In addition, the TGI was 4.69 µM and 13.6 µM in the experiment on A549 NSCLC; 2.28 µM in the experiment on HOP-92 NSCLC; 26.7 µM in the experiment on HS 578T breast; over 38.4 µM in the experiment with K-562 leukemia; 2.19 µM and 12.9 µM in the experiment on MALME-3M melanoma; 10.8 µM with MDA-MB-435. Also, the TGI in the experiment on NCI-H23 lung is 10.1 µM and 8.27 µM; with SNB-75 CNS, 0.511 µM and 1.72 µM.
